Measurements: patent US8207128B2, “Polypeptide inhibiting transmigration of leukocytes or growth and/or metastasis of cancer cells, and fusion protein thereof” (Supadelixir Inc., priority 2005, dated 2012)

Key:
RA mice = experiment: Migration of T cells, B cells and myeloid cells into the joint spaces of RA mice, synovial fluid flow cytometry; format: in vivo; conditions: dosing as in Experimental Example 3, similar to MTX-treated group, FIG. 7
Experimental: The polypeptide of the present invention, a saline solution, or MTX was administered to RA mice in the same manner as in EXPERIMENTAL EXAMPLE 3, and synovial fluid was obtained from the joint spaces of the mice of all the experimental groups. After the total cell number in the synovial fluid was counted, flow cytometry analysis was performed in the same manner as in EXPERIMENTAL EXAMPLE 3 to measure the number of T cells (CD3^+), B cells (CD19^+), and myeloid cells (CD11b^+, Gr-1^+) migrated to the joint spaces. The results are illustrated in FIG. 7.

mice with RA = experiment: Transmigration of lymphocytes and myeloid cells in the spleens of RA mice, flow cytometry; format: in vivo; conditions: spleen, i.p. at 2-day intervals for 4 weeks, similar to MTX-treated group, FIG. 6
Excerpt: A polypeptide of SEQ ID NO: 26 (40 MOOD) was intraperitoneally administered to mice with RA, which had been induced in the same manner in EXPERIMENTAL EXAMPLE 2, at 2-day intervals for 4 weeks. Normal mice, saline-treated RA mice with intraperitoneal injection of a saline solution, and MTX-treated RA mice with intraperitoneal injection of a solution of MTX (100 □) in a saline solution (100 □) were used as control groups. Spleen tissues were harvested from the mice of all the experimental groups and washed with RPMI 1640 media, and single cells were isolated. After the total number of the single cells were counted, the single cells were stained with monoclonal antibodies (anti-CD3^+, CD4^+, CD8^+, CD11^+, CD19^+, CD69^+, Gr-1^+) capable of labeling T cells (CD3^+, CD4^+, CD8^+), activated T cells (CD3^+, CD69^+), B cells (CD19^+), and myeloid cells (CD11^+, Gr-1^+), and flow cytometry analysis was performed. The number of lymphocytes and myeloid cells migrated to […] was measured by determining the number of the T cells, the activated T cells, the B cells, and the myeloid cells per total cell number, and the results are illustrated in FIG. 6.

[1] = system: B16-F10-Luc-G5 cells (mouse melanoma cell line); experiment: In vivo transmigration of cancer cells, B16-F10-Luc-G5 injected into tail veins, lung and liver nodules; conditions: nude mice; 100 μg i.p. at 2-day intervals for 15 days; control peptide SEQ ID NO: 27; FIG. 17
Experimental: B16-F10-Luc-G5 cells (mouse melanoma cell line, Xenogen, U.S.A.) were injected into the tail veins of 10 nude mice (5 weeks old). The nude mice were divided into five mice for a control group and five mice for a test group. The control group was injected with a mixture of PBS with a peptide consisting of EEFDDAEEFDD (SEQ ID NO: 27) (control peptide) and the test group with a mixture of PBS with 100 μg of a peptide of SEQ ID NO: 26. The control peptide and the peptide of SEQ ID NO: 26 were intraperitoneally administered to the control group and the test group, respectively, at 2-day intervals for 15 days. Then, the nude mice were dissected and the lungs and livers were excised from the nude mice. Tumor nodules were counted.

SEQ ID NO: 26: polypeptide derived from the mouse CD99, corresponds to the polypeptide of SEQ ID No: 14 derived from human CD99 (SGGISDSDLAD; listed as Mus musculus)
number of T cells, B cells and myeloid cells migrated to joint spaces, relative to saline-treated group (RA mice): 50-70% | migrated cell numbers of T cells, activated T cells, B cells and myeloid cells as fraction of saline-treated group (mice with RA): about ⅔ | degree of spread of melanoma (lung and liver nodules) relative to control group [1]: about 40%
